# “And” between values parts separate entries of the source, which are not always exact repeats. Equal values may be shown once.
# Test system: T1, GCaMP5-expressing T. gondii
# T1 construct: whole extracellular parasites expressing GCaMP5 Ca2+ sensor
# Parameters: species or system GCaMP5-expressing Toxoplasma gondii, extracellular; GCaMP5 fluorescence (cytosolic Ca2+) after 100 uM zaprinast in compound-pretreated extracellular parasites, background-subtracted, relative to zaprinast alone
# Conditions: 100 uM zaprinast stimulation, 10 min pretreatment, mean of two replicates, 0.23 h, 10 µM
# Summary of the method: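 Extracellular GCaMP5-expressing parasites in Ringer's solution were pretreated with compounds (single 10 μM dose, two biological replicates) for 10 min, then stimulated with 100 μM zaprinast at 37 °C for 4 min. Fluorescence read at 485/525 nm, basal subtracted, expressed as fold change relative to zaprinast-only parasites.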
row,Compound,fold change in fluorescence relative to zaprinast alone
1,CCn1c(-c2nonc2N)nc2ccccc21 [SB-693162],0.7593 and 1.139
2,Nc1ncnc2occ(-c3ccc(NC(=O)Nc4cc(C(F)(F)F)ccc4F)cc3)c12 [SB-707548-A],1.011 and 0.2784

# Same assay, conditions: 100 uM zaprinast stimulation; 10 min pretreatment; mean of two replicates; 0.23 h
row,Compound,fold change in fluorescence relative to zaprinast alone
1,COc1cccc(C2=C(N(C)c3ccccc3)C(=O)NC2=O)c1 [SB-334865],0.953
2,O=C1NC(=O)C(c2ccc(Cl)cc2)=C1Nc1ccc(O)cc1 [SB-340867],1.192
3,COc1cccc(C2=C(Nc3cccc(Cl)c3)C(=O)NC2=O)c1 [SB-341556],1.087
4,O=C1NC(=O)C(c2ccccc2Cl)=C1Nc1cccc(Cl)c1 [SB-342409],0.95
5,CSc1ccc(NC2=C(c3ccccc3Cl)C(=O)NC2=O)cc1 [SB-342411],0.8828
6,N#Cc1c(NC(=O)c2ccc(F)cc2)sc2c1CCCC2 [SB-347804],1.012
7,COc1ccc(C2=C(N3CCc4ccccc43)C(=O)NC2=O)cc1 [SB-361058],1.153
8,O=C1NC(=O)C(N2CCc3ccccc32)=C1c1ccccc1Cl [SB-373598],1.071
9,COc1ccccc1C1=C(Nc2cccc(O)c2)C(=O)NC1=O [SB-381891],0.9532
10,O=C1NC(=O)C(c2ccccc2Cl)=C1Nc1cccc(O)c1 [SB-390527],1.108
11,O=C1NC(=O)C(c2ccccc2)=C1Nc1cccc(O)c1 [SB-390534],0.8317
12,COc1ccc(C2=C(Nc3cccc(C(=O)O)c3)C(=O)NC2=O)cc1 [SB-390765],0.6431
13,COc1ccc(C2=C(Nc3cccc(O)c3)C(=O)NC2=O)cc1 [SB-390766],1.133
14,COc1cccc(C2=C(Nc3cc(Cl)c(O)c(Cl)c3)C(=O)NC2=O)c1 [SB-390767],1.06
15,COc1cccc(C2=C(Nc3ccc(Cl)c(C(=O)O)c3)C(=O)NC2=O)c1 [SB-390769],1.176
16,COc1cccc(C2=C(Nc3cccc(C(=O)O)c3)C(=O)NC2=O)c1 [SB-390770],0.98
17,COc1cccc(C2=C(Nc3cccc(O)c3)C(=O)NC2=O)c1 [SB-390771],0.8334
18,c1ccc(-c2nc3n(c2-c2ccc4c(c2)OCO4)CCC3)nc1 [SB-400868-A],0.8655
19,CN1C(=O)C(Nc2ccc(Cl)c(C(=O)O)c2)=C(c2ccc(Cl)cc2)C1=O [SB-404290],0.783
20,CN1C(=O)C(Nc2cc(Cl)c(O)c(Cl)c2)=C(c2ccc(Cl)cc2)C1=O [SB-404321],1.253
21,O=C1NC(=O)C(N2CCc3ccccc32)=C1c1cccc(Cl)c1 [SB-408010],0.7986
22,O=C1NC(=O)C(c2cccc(Cl)c2)=C1Nc1ccc(Cl)c(C(=O)O)c1 [SB-409513],1.123
23,O=C1NC(=O)C(c2cccc(Cl)c2)=C1Nc1ccc(O)c(Cl)c1 [SB-409514],1.132
24,Oc1ccc(-c2nc(-c3ccccc3)[nH]c2-c2ccncc2)cc1 [SB-428218-A],1.23

row,Compound,fold change in fluorescence relative to zaprinast alone
1,OCc1ccc(-c2nc(-c3ccc4c(c3)OCO4)c(-c3ccccn3)[nH]2)cc1 [SB-431533],1.145
2,NC(=O)c1ccc(-c2nc(-c3ccccn3)c(-c3ccc4c(c3)OCO4)[nH]2)cc1 [SB-431542-A],1.08
3,COc1ccc2cc(-c3c(-c4ccncc4)nc(-c4ccc([S+](C)[O-])cc4)n3C)ccc2c1 (centres unmarked) [SB-437013],1.038
4,NCc1ccc(-c2nc(-c3ccc(Cl)c(O)c3)c(-c3ccncc3)[nH]2)cc1 [SB-476429-A],1.226
5,Nc1[nH]nc2ncc(-c3ccccc3)cc12 [SB-517081],0.8708
6,Nc1n[nH]c2nnc(-c3ccccc3)cc12 [SB-517389],1.055
7,CC(=O)Nc1[nH]nc2ncc(-c3ccccc3)cc12 [SB-548492],1.137
8,COc1ccc(-c2oc3ncnc(N)c3c2-c2ccc(OC)cc2)cc1 [SB-589132],1.026
9,CCN(CC)CCOc1ccc(Nc2ncc3cc(-c4c(Cl)cccc4Cl)c(=O)n(C)c3n2)cc1 [SB-601273],0.7002
10,CCCC(=O)Nc1[nH]nc2ncccc12 [SB-601436],0.9225
11,COc1cccc(-c2nc(-c3ccccc3)[nH]c2-c2ccncc2)c1 [SB-610250],0.7579
12,Oc1cccc(-c2nc(-c3ccccc3)[nH]c2-c2ccncc2)c1 [SB-610251-B],1.022
13,ON=C1CCc2cc(-c3nc(C4CCNCC4)[nH]c3-c3ccncc3)ccc21 [SB-614067-R],1.048
14,COc1ccc2cc(-c3c(-c4ccncc4)nc(-c4ccc(SC)cc4C)n3C)ccc2c1 [SB-625086-M],0.941
15,CN(C)CCCC(=O)Nc1n[nH]c2nnc(-c3ccccc3)cc12 [SB-627772-A],1.028
16,COc1ccc2cc(-c3c(-c4ccncc4)nc(-c4ccc([S+](C)[O-])cc4C)n3C)ccc2c1 (centres unmarked) [SB-630812],1.111
17,COc1ccc2cc(-c3c(-c4ccncc4)nc(-c4ccc(S(C)(=O)=O)cc4C)n3C)ccc2c1 [SB-633825],0.9532
18,CCCC(=O)Nc1[nH]nc2ncc(-c3cccc4ccccc34)cc12 [SB-642057],0.9221
19,Nc1n[nH]c2cnc(-c3ccccc3)cc12 [SB-642124-AAA],1.394
20,COc1ccc2cc(-c3nc(-c4ccccc4C(C)C)[nH]c3-c3ccncc3)ccc2c1 [SB-660566],0.9646
21,CN1CCC(C(=O)Nc2n[nH]c3nnc(-c4ccccc4)cc23)CC1 [SB-678557-A],1.083
22,CN(C)CCOc1ccc(-c2cc(-c3ccc(Cl)c(O)c3)c(-c3ccncc3)[nH]2)cc1 [SB-684387-B],0.6076
23,CCN1CCC(C(=O)Nc2n[nH]c3nnc(-c4cccc(F)c4F)cc23)CC1 [SB-686709-A],1.08
24,c1ccc(-c2ccnc3[nH]ccc23)cc1 [SB-693578],1.319

row,Compound,fold change in fluorescence relative to zaprinast alone
1,CCN1CCC(CC(=O)Nc2n[nH]c3nnc(-c4cccc(F)c4F)cc23)CC1 [SB-698596-AC],1.047
2,O=C(Nc1n[nH]c2nc(-c3ccccc3)c(Br)cc12)C1CC1 [SB-708998],0.9523
3,O=C(Nc1n[nH]c2nc(-c3ccccc3)ccc12)C1CC1 [SB-708999],1.075
4,O=C(Nc1n[nH]c2nc(-c3ccc(O)cc3)ccc12)C1CC1 [SB-710363],1.137
5,COc1cccc(-c2ccc3c(NC(=O)C4CC4)n[nH]c3n2)c1 [SB-710903],1.151
6,COc1ccc(-c2ccc3c(NC(=O)C4CC4)n[nH]c3n2)cc1 [SB-711237],1.177
7,COc1ccccc1-c1ccc2c(NC(=O)C3CC3)n[nH]c2n1 [SB-711239],1.107
8,O=C(Nc1n[nH]c2nc(-c3cccc(O)c3)ccc12)C1CC1 [SB-711805],0.905
9,O=C(Nc1n[nH]c2nc(-c3ccccc3O)ccc12)C1CC1 [SB-711880],1.267
10,O=C(Nc1n[nH]c2nc(-c3ccc(O)cc3)c(Br)cc12)C1CC1 [SB-725317],1.144
11,Nc1ncnc2scc(-c3ccc(NC(=O)Cc4cc(F)ccc4F)cc3)c12 [SB-731254-M],1.242
12,O=C(Nc1n[nH]c2cc(-c3cccs3)ccc12)C1CC1 [SB-731284],1.194
13,CCN1CCN(CCCC(=O)Nc2n[nH]c3nc(-c4ccc(O)cc4)c(Br)cc23)CC1 [SB-731579],1.047
14,O=C(Nc1n[nH]c2cc(-c3ccsc3)ccc12)C1CC1 [SB-732932],1.052
15,O=C(Nc1n[nH]c2cc(-c3ccccc3)ccc12)C1CC1 [SB-732941],1.147
16,O=C(Nc1n[nH]c2cc(-c3ccccc3F)ccc12)C1CC1 [SB-733371],0.8641
17,CCn1c(-c2ccccc2)nc2cnccc21 [SB-733416],1.146
18,CCn1c(-c2ccoc2)nc2cnccc21 [SB-733887],1.127
19,O=C(Nc1n[nH]c2cc(-c3cccc(F)c3F)ccc12)C1CC1 [SB-733894],1.167
20,Nc1nonc1-c1nc2cnccc2n1C1CCCCC1 [SB-734117],1.214
21,O=C(Nc1n[nH]c2nc(-c3ccccc3)c(Cl)cc12)C1CC1 [SB-734909],1.154
22,CCn1c(-c2ccncc2)nc2cnccc21 [SB-735216],1.246
23,O=C(Nc1n[nH]c2nc(-c3cccs3)c(Br)cc12)C1CC1 [SB-735297],1.322

# Same assay, conditions: 0.23 h, 10 µM
row,Compound,% of control remaining
1,O=C(Nc1n[nH]c2nnc(-c3cccnc3)cc12)C1CC1 [SB-675259-M],1.147
